Values quoted from earlier work in patent publication US20060110477A1, “Composition and method for supporting and promoting healthy sexual function and prevention and treatment of sexual dysfunction” (priority 2004, published 2006).

Target: rat cGMP-specific PDE5 (Rattus norvegicus, UniProt O54735)

relative potency against cGMP PDE5 (among the flavonols in the ethyl acetate fraction): most potent | IC50 ratio PDE4/PDE5 (selectivity between PDE isoforms): 196.2
SMILES: COc1cc(O)c(CC=C(C)C)c2oc(-c3ccc(O)cc3)c(O)c(=O)c12 [sophoflavescenol]
